In patent publication US9255100B2 (BAYER INTELLECTUAL PROPERTY GMBH, priority 2010, dated 2016):

Each compound was assayed against T1, N-terminally GST-tagged human full length recombinant Mps-1 kinase (Homo sapiens, UniProt P33981) (assay: Mps-1 kinase assay (TR-FRET)). Details: Mps1 IC50 [nM], 10 μM ATP, 1 μM peptide substrate, 60 min at 22° C.
T1 construct: N-terminally GST-tagged human full length recombinant Mps-1 kinase; purchased Invitrogen, Karslruhe, Germany PV4071
T1 sequence (P33981 1-857): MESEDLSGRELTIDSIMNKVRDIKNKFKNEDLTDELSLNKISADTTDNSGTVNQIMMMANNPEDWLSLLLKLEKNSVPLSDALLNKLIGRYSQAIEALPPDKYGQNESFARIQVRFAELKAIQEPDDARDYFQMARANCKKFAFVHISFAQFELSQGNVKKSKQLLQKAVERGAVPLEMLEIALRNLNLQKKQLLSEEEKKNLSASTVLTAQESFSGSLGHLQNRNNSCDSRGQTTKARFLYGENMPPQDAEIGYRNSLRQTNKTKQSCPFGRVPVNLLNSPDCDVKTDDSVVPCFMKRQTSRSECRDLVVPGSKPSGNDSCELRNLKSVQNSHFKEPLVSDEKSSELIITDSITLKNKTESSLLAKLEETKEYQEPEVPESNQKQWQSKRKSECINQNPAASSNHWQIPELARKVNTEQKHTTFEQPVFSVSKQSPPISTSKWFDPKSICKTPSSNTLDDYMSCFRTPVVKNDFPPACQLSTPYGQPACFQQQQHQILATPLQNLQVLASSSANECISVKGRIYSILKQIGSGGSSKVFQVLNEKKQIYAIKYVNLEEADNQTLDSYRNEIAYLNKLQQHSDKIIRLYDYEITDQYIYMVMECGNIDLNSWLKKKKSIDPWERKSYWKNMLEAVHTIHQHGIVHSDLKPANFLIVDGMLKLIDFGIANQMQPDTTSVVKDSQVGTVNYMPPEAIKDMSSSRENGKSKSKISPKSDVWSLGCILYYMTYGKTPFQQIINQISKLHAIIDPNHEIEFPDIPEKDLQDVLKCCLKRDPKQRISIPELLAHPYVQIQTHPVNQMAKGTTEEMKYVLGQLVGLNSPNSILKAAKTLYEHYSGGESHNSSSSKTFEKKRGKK
Format: biochemical
Method: The human kinase Mps-1 phosphorylates a biotinylated substrate peptide. Detection of the phosphorylated product is achieved by time-resolved fluorescence resonance energy transfer (TR-FRET) from Europium-labelled anti-phospho-Serine/Threonine antibody as donor to streptavidin labelled with cross-linked allophycocyanin (SA-XLent) as acceptor. Compounds are tested for their inhibition of the kinase activity.
N-terminally GST-tagged human full length recombinant Mps-1 kinase (purchased from Invitrogen, Karslruhe, Germany, cat. no PV4071) was used. As substrate for the kinase reaction a biotinylated peptide of the amino-acid sequence […] (C-terminus in amide form, purchased from Biosynthan GmbH, Berlin) was used.
The concentration of Mps-1 in the assay was adjusted to the activity of the enzyme lot and was chosen appropriate to have the assay in the linear range, typical enzyme concentrations were in the range of about 1 nM (final conc. in the 5 μl assay volume).
The resulting mixture was incubated 1 h at 22° C. to allow the binding of the phosphorylated peptide to the anti-phospho(Ser/Thr)-Europium-antibody. Subsequently the amount of phosphorylated substrate was evaluated by measurement of the resonance energy transfer from the Europium-labelled anti-phospho(Ser/Thr) antibody to the Streptavidin-XLent.
Compound `Cc1cc(-c2cnc3c(NCCC(C)CO)cc(-c4ccccc4CO)nn23)ccc1C(=O)NC1CC1` (racemic) [Example 343, (RS)-N-cyclopropyl-4-{8-[(4-hydroxy-3-methylbutyl)amino]-6-[2-(hydroxymethyl)phenyl]imidazo [1,2-b]pyridazin-3-yl}-2-methyl-benzamide] has an IC50 of 4.3 nM.
`Cc1cc(-c2cnc3c(NCC4CCOC4)cc(-c4ccccc4CO)nn23)ccc1C(=O)NC1CC1` (racemic) [Example 345, (RS)-N-cyclopropyl-4-{6-[2-(hydroxy-methyl)phenyl]-8-[(tetrahydro-furan-3-ylmethyl)amino]imidazo [1,2-b]pyridazin-3-yl}-2-methyl-benzamide] showed an IC50 of 3 nM.
`CC(C)CNc1cc(-c2ccncc2)nn2c(-c3ccc(-c4cnc(C5CC5)[nH]4)cc3)cnc12` [Example 3, 3-[4-(2-Cyclopropyl-1H-imidazol-5-yl)phenyl]-N-isobutyl-6-(pyridin-4-yl) imidazo[1,2-b]pyridazin-8-amine] showed an IC50 of 13.7 nM.
`c1cc(-c2cc(NC[C@@H]3CCCO3)c3ncc(-c4ccc(-c5cnc(C6CC6)[nH]5)cc4)n3n2)ccn1` [Example 4, 3-[4-(2-Cyclopropyl-1H-imidazol-5-yl)phenyl]-6-(pyridin-4-yl)-N-[(2S)-tetrahydrofuran-2-ylmethyl]imidazo[1,2-b]pyridazin-8-amine] was tested, and the IC50 was 20.6 nM.
`c1cc(-c2cc(NC[C@H]3CCCO3)c3ncc(-c4ccc(-c5cnc(C6CC6)[nH]5)cc4)n3n2)ccn1` [Example 5, 3-[4-(2-Cyclopropyl-1H-imidazol-5-yl)phenyl]-6-(pyridin-4-yl)-N-[(2R)-tetrahydrofuran-2-ylmethyl]imidazo[1,2-b]pyridazin-8-amine] gave an IC50 of 13.3 nM.
`Fc1ccc(-c2cc(NCCC(F)(F)F)c3ncc(-c4ccc(-c5cnc(C6CC6)[nH]5)cc4)n3n2)cc1` [Example 6, 3-[4-(2-Cyclopropyl-1H-imidazol-5-yl)phenyl]-6-(4-fluorophenyl)-N-(3,3,3-trifluoropropyl)imidazo[1,2-b]pyridazin-8-amine] showed an IC50 of 43.6 nM.
`Cc1cc(-c2cnc3c(NCC(C)(C)O)cc(-c4ccc(F)cc4)nn23)ccc1C(=O)NC1CC1` [Example 7, N-cyclopropyl-4-{6-(4-fluorophenyl)-8-[(2-hydroxy-2-methylpropyl)amino]imidazo[1,2-b]pyridazin-3-yl}-2-methylbenzamide] gave an IC50 of 1.2 nM.
`CC(C)(O)CNc1cc(-c2ccc(F)cc2)nn2c(-c3ccc(-c4cnc(C5CC5)[nH]4)cc3)cnc12` [Example 8, 1-({3-[4-(2-Cyclopropyl-1H-imidazol-5-yl)phenyl]-6-(4-fluorophenyl)imidazo[1,2-b]pyridazin-8-yl}amino)-2-methylpropan-2-ol] was tested, and the IC50 was 111 nM.
`CC(C)(O)CNc1cc(-c2ccncc2)nn2c(-c3ccc(-c4cnc(C5CC5)[nH]4)cc3)cnc12` [Example 9, 1-({3-[4-(2-Cyclopropyl-1H-imidazol-5-yl)phenyl]-6-(pyridin-4-yl)imidazo[1,2-b]pyridazin-8-yl}amino)-2-methylpropan-2-ol] gave an IC50 of 25 nM.
For `Cc1cc(-c2cnc3c(NCCC(F)(F)F)cc(-c4ccnn4C)nn23)ccc1C(=O)NC1CC1` [Example 10, N-cyclopropyl-2-methyl-4-{6-(1-methyl-1H-pyrazol-5-yl)-8-[(3,3,3-trifluoropropyl)amino]imidazo[1,2-b]pyridazin-3-yl}benzamide], the IC50 was < 1 nM.
`CC(C)CNc1cc(-c2ccccc2)nn2c(-c3ccc4c(N)n[nH]c4c3)cnc12` [Example 11, 3-(3-Amino-1H-indazol-6-yl)-N-isobutyl-6-phenylimidazo[1,2-b]pyridazin-8-amine] showed an IC50 of 2.4 nM.
Work on `Cc1cc(-c2cnc3c(NCC(C)(C)O)cc(-c4ccccc4)nn23)ccc1C(=O)NC1CC1` [Example 12, N-cyclopropyl-4-{8-[(2-hydroxy-2-methylpropyl)amino]-6-phenylimidazo[1,2-b]pyridazin-3-yl}-2-methylbenzamide] yielded an IC50 of 3.2 nM.
`CC(C)CNc1cc(-c2ccncc2)nn2c(-c3ccc(C(=S)NC4CC4)cc3)cnc12` [Example 13, N-cyclopropyl-4-[8-(isobutylamino)-6-(pyridin-4-yl)imidazo[1,2-b]pyridazin-3-yl]benzenecarbothioamide] was tested, and the IC50 was 1.8 nM.
In the case of `CC(C)(O)CNc1cc(-c2ccccc2)nn2c(-c3ccc(C(=O)NC4CC4)cc3)cnc12` [Example 14, N-cyclopropyl-4-{8-[(2-hydroxy-2-methylpropyl)amino]-6-phenylimidazo[1,2-b]pyridazin-3-yl}benzamide], the IC50 is reported as 1.2 nM.
`CSc1cc(NCC(C)(C)O)c2ncc(-c3ccc(C(=O)NC4CC4)c(C)c3)n2n1` [Example 15, N-cyclopropyl-4-{8-[(2-hydroxy-2-methylpropyl)amino]-6-(methylsulfanyl)imidazo[1,2-b]pyridazin-3-yl}-2-methylbenzamide] showed an IC50 of 21.5 nM.
Work on `C/C=C/c1cc(NCCC(F)(F)F)c2ncc(-c3ccc(-c4cnc(C5CC5)[nH]4)cc3)n2n1` [Example 16, 3-[4-(2-Cyclopropyl-1H-imidazol-5-yl)phenyl]-6-[(1E)-prop-1-en-1-yl]-N-(3,3,3-trifluoropropyl)imidazo[1,2-b]pyridazin-8-amine] yielded an IC50 of 27.3 nM.
With `COC(C)(C)CNc1cc(-c2ccncc2)nn2c(-c3ccc(C(=O)NC4CC4)c(C)c3)cnc12` [Example 17, N-cyclopropyl-4-{8-[(2-methoxy-2-methylpropyl)amino]-6-(pyridin-4-yl)imidazo[1,2-b]pyridazin-3-yl}-2-methylbenzamide] the IC50 was 3.2 nM.
`Cc1cc(-c2cnc3c(NCC(C)(C)O)cc(S(C)(=O)=O)nn23)ccc1C(=O)NC1CC1` [Example 18, N-cyclopropyl-4-{8-[(2-hydroxy-2-methylpropyl)amino]-6-(methylsulfonyl)imidazo[1,2-b]pyridazin-3-yl}-2-methylbenzamide] was tested, and the IC50 was 228 nM.
For `CC(C)(O)CNc1cc(-c2ccc(F)cc2)nn2c(-c3ccc(C(=O)NC4CC4)cc3)cnc12` [Example 19, N-cyclopropyl-4-{6-(4-fluorophenyl)-8-[(2-hydroxy-2-methylpropyl)amino]imidazo[1,2-b]pyridazin-3-yl}benzamide], the IC50 was 1.6 nM.
`Cc1cc(-c2cnc3c(NCCC(F)(F)F)cc(-c4ccccc4CO)nn23)ccc1C(=O)NC1CC1` [Example 20, N-cyclopropyl-4-{6-[2-(hydroxymethyl)phenyl]-8-[(3,3,3-trifluoropropyl)amino]imidazo[1,2-b]pyridazin-3-yl}-2-methylbenzamide] showed an IC50 of 1.2 nM.
For `Cc1cc(-c2cnc3c(NCC(C)(C)O)cc(-c4ccnn4C)nn23)ccc1C(=O)NC1CC1` [Example 21, N-cyclopropyl-4-{8-[(2-hydroxy-2-methylpropyl)amino]-6-(1-methyl-1H-pyrazol-5-yl)imidazo[1,2-b]pyridazin-3-yl}-2-methylbenzamide], the IC50 was 3.7 nM.
Compound `C=Cc1cc(NCCC(F)(F)F)c2ncc(-c3ccc(-c4cnc(C5CC5)[nH]4)cc3)n2n1` [Example 22, 3-[4-(2-Cyclopropyl-1H-imidazol-5-yl)phenyl]-6-ethenyl-N-(3,3,3-trifluoropropyl)imidazo[1,2-b]pyridazin-8-amine] has an IC50 of 35.7 nM.
`C/C=C(\C)c1cc(NCC(C)(C)O)c2ncc(-c3ccc(C(=O)NC4CC4)c(C)c3)n2n1` [Example 25, 4-{6-[(2E)-But-2-en-2-yl]-8-[(2-hydroxy-2-methylpropyl)amino]imidazo[1,2-b]pyridazin-3-yl}-N-cyclopropyl-2-methylbenzamide] showed an IC50 of 13.1 nM.
`FC(F)(F)CCNc1cc(-c2ccncc2)nn2c(-c3ccc(-c4cnc(C5CC5)[nH]4)cc3)cnc12` [Example 26, 3-[4-(2-Cyclopropyl-1H-imidazol-5-yl)phenyl]-6-(pyridin-4-yl)-N-(3,3,3-trifluoropropyl)imidazo[1,2-b]pyridazin-8-amine] was tested, and the IC50 was 4.1 nM.
For `C/C=C(\C)c1cc(NCCC(F)(F)F)c2ncc(-c3ccc(-c4cnc(C5CC5)[nH]4)cc3)n2n1` [Example 27, 6-[(2E)-But-2-en-2-yl]-3-[4-(2-cyclopropyl-1H-imidazol-5-yl)phenyl]-N-(3,3,3-trifluoropropyl)imidazo[1,2-b]pyridazin-8-amine], the IC50 was 33.2 nM.
